Results on one compound are retold here after patent US20260355182A1, “ISOQUINOLINE DERIVATIVE, SYNTHESIS METHOD THEREFOR, AND USE THEREOF” (Harbin Gloria Pharmaceuticals Co., Ltd., priority 2023, published 2026).

For one data set, the system named is db/db mice. Description: Acute glucose-response assay in non-fasted db/db mice. Format: in vivo. As to conditions: s.c., 2 h; TZ 0.5, liraglutide 0.6, T6 0.5 mg/Kg. The protocol:
The db/db mice were used to evaluate the glucose-lowering activity of compound T6 in comparison with reference metabolic agents (TZ 0.5 mg/Kg, liraglutide 0.6 mg/Kg, T6 0.5 mg/Kg). In FIG. 15, A) for the acute glucose-response assay, drugs were administered to non-fasted db/db mice. Immediately after drug administration (s. c.), mice were deprived of food and water, and blood glucose levels were measured from tail blood samples 2 h later. The relative percentage change in blood glucose was calculated by comparing glucose levels before and after treatment in the same animal. […] HbA1c levels were then measured using a glycated hemoglobin A1c enzyme-linked immunosorbent assay, also referred to as a mouse HbA1c ELISA assay. […] Data are presented as mean±error bars, with individual circles representing individual animals. Statistical significance is indicated as P<0.001 (**) and P<0.0001 (***).

Data set [1] has as its system phosphoglycerate kinase 1 (Pgk1). To be noted: cited from earlier work.
The test system of another data set is Wild-type mice (C57BL/6). Description: Blood glucose in wild-type mice. Format: in vivo. To be noted: 0.1 mg/kg i.p., C57BL/6, fasted 6 hours after administration. On the procedure:
Wild-type mice (C57BL/6) aged 3 months to 4 months under normal feeding conditions were intraperitoneally injected with different drugs at 0.1 mg/kg. Mice injected with normal saline served as the control group. Mice were fasted for 6 hours after administration. Blood was collected from the tail of each mouse to measure blood glucose levels. Each group consisted of 9 mice.

For the next data set, the system named is patients. To be noted: cited from earlier work.
Data set [2] concerns MPTP-induced Parkinsonian mouse model. Briefly: MPTP-induced Parkinsonian mouse model, rotarod and TH Western blot (T6). The data set is classed as in vivo. To be noted: TZ, MPTP 20 mg/kg. The protocol:
Mice were administered MPTP at 20 mg/kg to induce Parkinsonian motor impairment and dopaminergic neuronal injury. […] In FIG. 13, A) motor coordination and endurance were assessed using the rotarod test and are expressed as the time remaining on the rotating rod. […] Actin was used as a loading control. […] Data are presented as mean±error bars, with individual points representing biological replicates. Significance of one-way ANOVA analysis is indicated as P<0.05 (*), P<0.01 (**), and P<0.001 (***).
(In general: The rotarod test checks motor coordination on a turning rod.)

The subject of data set [3] is mouse and rat models of Parkinson's disease, Alzheimer's disease, multiple system atrophy. To be noted: cited from earlier work.
A further data set concerns rats. As to conditions: combined administration of terazosin and propranolol; cited from earlier work.
Another data set has as its system diabetic patients. To be noted: cited from earlier work.
A further data set deals with primary mouse neurons. Briefly: Cellular status and glucose metabolism-related gene expression in primary mouse neurons. The data set is classed as cell-based. As to conditions: normoxic, 72 h; TZ 10 μM, T6 10 PM (so in the source). The text has this: In FIG. 10, A) representative bright-field images show the cellular status of primary neurons after treatment. […] The analyzed genes included G6PD, HK2, LDHA, PDK1, PGK1, and SLC2A1/GLUT1. […] TZ treatment produced a similar but generally more moderate metabolic gene-response profile, including increased LDHA, PDK1, and SLC2A1/GLUT1 expression. […] Error bars indicate variation among measurements. […] The results support the use of T6 or related compounds as agents capable of regulating neuronal metabolic status and glucose metabolism-associated pathways.

The target of another data set is T1, Pgk1 (Homo sapiens, UniProt P00558).
T1 sequence (P00558 1-417): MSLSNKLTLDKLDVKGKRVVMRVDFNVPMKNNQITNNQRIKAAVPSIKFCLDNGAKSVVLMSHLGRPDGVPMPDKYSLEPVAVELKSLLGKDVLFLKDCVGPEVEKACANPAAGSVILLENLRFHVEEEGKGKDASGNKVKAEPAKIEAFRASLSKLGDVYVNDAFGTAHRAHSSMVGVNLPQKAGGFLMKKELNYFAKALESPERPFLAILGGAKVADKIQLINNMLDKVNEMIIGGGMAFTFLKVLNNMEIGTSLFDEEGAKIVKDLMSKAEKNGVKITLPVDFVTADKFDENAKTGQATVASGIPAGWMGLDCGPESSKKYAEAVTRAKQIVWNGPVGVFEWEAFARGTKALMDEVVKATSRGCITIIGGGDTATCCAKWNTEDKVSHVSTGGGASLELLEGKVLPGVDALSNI
Description: In vitro biochemical Pgk1 enzymatic activity assay (NADH production). To be noted: 1.6 mM GAP, 1 mM β-NAD, 1 mM ADP, 20 ng/μL GAPDH, pH 8.6, 10 minutes. Details: GAPDH-coupled NADH assay. The protocol: Human Pgk1 cDNA was cloned into the pEASYTM-E2 vector (TransGen Biotech) containing a His tag. Protein expression was induced in BL21(DE3) chemocompetent cells (TransGen Biotech) with 0.5 mM IPTG. After lysing cells in extraction buffer (20 mM sodium phosphate, 500 mM NaCl, 5 mM imidazole, 5% glycerol, protease inhibitor cocktail, pH 7.9), the supernatant was purified with nickel beads (AdarBiotech). The His-tagged Pgk1 was eluted with the elution buffer (20 mM sodium phosphate, 500 mM NaCl, 80 mM imidazole, protease inhibitor cocktail, pH 7.9). The activity of Pgk1 can be measured by monitoring the rate of NADH production, as NADH accumulated as the reaction proceeded. Purified Pgk1-His protein ([…]) was added to the reaction buffer (20 mM Tris, 100 mM NaCl, 2 mM DTT, 0.1 mM MgSO4, 10 mM NaHPO4, pH 8.6), and the substrates (1.6 mM GAP, 1 mM β-NAD, 1 mM ADP, 20 ng/μL GAPDH) was added. […] After reaction for 10 minutes at room temperature, the absorbance wavelength at 339 nm was measured using a microplate reader (Molecular Devices, SpectraMax i3x), and this wavelength corresponds to NADH levels.

Another data set deals with SK-N-SH cells. Description: Dose-effect relationship on cellular ATP levels in cultured SK-N-SH cells. Format: cell-based, human. On the procedure:
SK-N-SH cells were seeded in a 6-well plate at a density of 6×10^4 per well. Cells were cultured for 12 hours under 5% O2, and the drug was added. Cells were harvested after 48 hours. Cellular ATP levels were measured using a Promega ATP assay kit. The experiment was repeated 5 times to 7 times.

For data set [4], the system named is MPTP-induced Parkinson's disease model mice. Briefly: MPTP-induced mouse model of Parkinson's disease, rotarod and tyrosine hydroxylase Western blot. To be noted: terazosin 0.1 mg/Kg. Format: in vivo. The protocol:
Male mice aged 3 months were used and fed normally. The acute MPTP modeling method (see Sonsalla P K, Heikkila R E. The influence of dose and dosing interval on MPTP-induced dopaminergic neurotoxicity in mice. Eur J Pharmacol 1986; 129(3): 339-45.) was employed. MPTP was injected intraperitoneally four times in total at a dose of 20 mg/kg body weight per injection, with a 2-hour interval between each injection. MPTP was dissolved in normal saline, and the control group received an equal dose of normal saline. T2 was dissolved in DMSO and diluted with normal saline to the desired concentration. Accordingly, equal doses of DMSO and normal saline were administered during the treatment. On the day of MPTP model establishment, mice were administered either T2 (treatment group) or DMSO (control group). Subsequently, mice in all groups were administered the corresponding drugs daily. Mouse behavior was tested using a rotarod (E103, UGO BASILE). First, mice were pre-trained for two consecutive days at a constant speed of 15 revolutions per minute (15 rpm) until they could stay on the rod for more than 60 seconds. On day 7 after MPTP injection, mice were tested on the rotarod in an accelerating mode (2 rpm to 45 rpm). The latency to fall from the rotarod was recorded, and the behavior was monitored by a camera. After the experiment, the mice were sacrificed, and the striatal brain tissue was harvested for Western blot assay. Tyrosine hydroxylase (TH) is a protein specifically expressed in dopaminergic neurons. Therefore, whether dopaminergic neurons were damaged can be determined by Western blot assay using an anti-TH antibody.

Take `COc1cc2nc(N3CCN(C(=O)C4CCCO4)CC3)nc(N)c2cc1OC` (stereo not drawn) [Terazosin, terazosin]: the “Acute change in blood glucose” value in the data set with db/db mice is recorded as “weaker acute effect”. Besides, the “Effect on Pgk1, high concentration” value in data set [1] (high concentrations) is “can inhibit Pgk1”. In addition, the “Effect on Pgk1, low concentration” value in data set [1] (low concentrations) is recorded as “can activate Pgk1”. In addition, the “Binding to / activation of Pgk1” value in [1] (previous studies) is “can activate Pgk1”. In addition, the “Dissociation of ATP from Pgk1 protein” value in data set [1] (published studies) is on record as “promoted the dissociation of ATP from the Pgk1 protein”. In addition, in the data set on Wild-type mice (C57BL/6), the Hypoglycemic effect entry was “did not exhibit a hypoglycemic effect”. For the same compound, in the data set with patients, the Side effects result was “intraoperative floppy iris syndrome (IFIS), hypotension, fatigue, dizziness, syncope, and blurred vision”. Moreover, the “Rotarod performance (TZ)” value in data set [2] is given as “weaker improvement”. For the same compound, the “Therapeutic and prophylactic effects” value in data set [3] was “exerts therapeutic and prophylactic effects”. Further, the “Blood glucose in rats” value in the data set on rats is “did not affect blood glucose in rats”. In addition, the “Blood glucose and lipid levels” value in the data set with diabetic patients is “efficacy is extremely limited or ineffective”. Further, the Neuronal cellular morphology/status entry in the data set with primary mouse neurons is reported as “detectable changes in neuronal cellular morphology/status”. At Pgk1 (role: activator), the “Concentration for best activation of Pgk1” value came to 1 µM. Also, at Pgk1 (role: inhibitor, 100 μM), the “Effect on Pgk1 enzymatic activity at high concentration” value is listed as “can inhibit Pgk1 enzymatic activity”. The “Inhibition of cell growth” value in the data set with SK-N-SH cells (50 μM, SK-N-SH cells) was “a tendency to inhibit cell growth”. The “Optimal dose for cellular ATP levels” value in the data set with SK-N-SH cells (doses 5, 10 and 50 μM, 48 hours, 5% O2) turned out to be 10 µM. In addition, in [4] (day 7 after MPTP), the “Motor ability (rotarod)” value was “improved the motor ability of mice”. Further, in [4] (striatum, Western blot), the “Tyrosine hydroxylase level / dopaminergic neurons” value is reported as “exerted a protective effect on dopaminergic neurons”.
